US11633393B2, “Tubulin binding compounds and therapeutic use thereof” (BeyondSpring Pharmaceuticals, Inc., priority 2017, dated 2023)

Tested on: bovine brain tubulin
Assay: Microtubule pelleting assay
Format: biochemical
Conditions: 100 μM compound, microtubules 2 mg/mL, 30 min at 37° C.
Experimental: A microtubule pelleting assay is used to test in vitro the direct effect of the tubulin binding compounds described herein such as the compounds listed in Tables 1, 2, and 3. […] Freshly polymerised/depolymerised bovine brain tubulin is supplemented with 34% Glycerol and 1 mM GTP and adjusted to a concentration of 4 mg/mL. Polymerization into microtubule is achieved by incubating the tubulin at 37° C. for 30 min.
To assess the effect of the compounds tested, a final concentration of 100 μM is added to the warm microtubules diluted at 2 mg/mL and after a 30 min incubation at 37° C., the reaction mixture is added on top of a glycerol cushion. After high speed centrifugation at 80,000 rpm for 15 min, the microtubule pellet fractions are separated from the supernatant fractions and analyzed by SDS-PAGE. In the presence of the 3 MDAs, the tubulin band is observed in the pellet fractions, which indicates the […] effect of these compounds. […] The test compounds generally show destabilizing effect on microtubules.

CC(=O)O[C@H]1C(=O)[C@@]2(C)[C@H]([C@H](OC(=O)c3ccccc3)[C@]3(O)C[C@H](OC(=O)[C@H](O)[C@@H](NC(=O)c4ccccc4)c4ccccc4)C(C)=C1C3(C)C)[C@]1(OC(C)=O)CO[C@@H]1C[C@@H]2O [taxol]
effect on microtubules (tubulin in pellet vs supernatant fractions, SDS-PAGE): increases the amount of tubulin observed in the pellet fraction
